Assay results as given in ChEMBL document CHEMBL5346950, “Development of Biaryl-Containing Aldo-Keto Reductase 1C3 (AKR1C3) Inhibitors for Reversing AKR1C3-Mediated Drug Resistance in Cancer Treatment” (J Med Chem, 2023).
Changes are numbered by the printed parent chain.

Legend:
[1] = biological target: T1, Aldo-keto reductase family 1 member C2 (Homo sapiens, UniProt P52895); assay: Inhibition of human recombinant AKR1C2 transfected in Escherichia coli BL21 (DE3) pLysS competent cells using S-tetralol as substrate assessed as inhibition of NADP+ dependent substrate oxidation incubated for 10 mins by fluorescence microplate reader assay
T1 sequence (P52895 whole entry): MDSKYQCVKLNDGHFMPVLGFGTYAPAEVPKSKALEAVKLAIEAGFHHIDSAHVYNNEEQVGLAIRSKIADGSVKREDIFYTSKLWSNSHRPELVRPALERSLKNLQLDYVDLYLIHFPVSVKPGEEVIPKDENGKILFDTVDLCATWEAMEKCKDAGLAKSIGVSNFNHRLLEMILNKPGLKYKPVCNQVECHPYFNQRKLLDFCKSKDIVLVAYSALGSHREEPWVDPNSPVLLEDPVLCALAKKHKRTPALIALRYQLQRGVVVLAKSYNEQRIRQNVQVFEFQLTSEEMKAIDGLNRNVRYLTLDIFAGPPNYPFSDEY

[2] = biological target: T2, Aldo-keto reductase family 1 member C1 (Homo sapiens, UniProt Q04828); assay: Inhibition of human recombinant AKR1C1 transfected in Escherichia coli BL21 (DE3) pLysS competent cells using S-tetralol as substrate assessed as inhibition of NADP+ dependent substrate oxidation incubated for 10 mins by fluorescence microplate reader assay
T2 sequence (Q04828 whole entry): T1 sequence (P52895 whole entry) with V38T, H47R, V54L, S87C, M151V, H170R, L172Q

[3] = biological target: T3, Aldo-keto reductase family 1 member C4 (Homo sapiens, UniProt P17516); assay: Inhibition of human recombinant AKR1C4 transfected in Escherichia coli BL21 (DE3) pLysS competent cells using S-tetralol as substrate assessed as inhibition of NADP+ dependent substrate oxidation incubated for 10 mins by fluorescence microplate reader assay
T3 sequence (P17516 whole entry): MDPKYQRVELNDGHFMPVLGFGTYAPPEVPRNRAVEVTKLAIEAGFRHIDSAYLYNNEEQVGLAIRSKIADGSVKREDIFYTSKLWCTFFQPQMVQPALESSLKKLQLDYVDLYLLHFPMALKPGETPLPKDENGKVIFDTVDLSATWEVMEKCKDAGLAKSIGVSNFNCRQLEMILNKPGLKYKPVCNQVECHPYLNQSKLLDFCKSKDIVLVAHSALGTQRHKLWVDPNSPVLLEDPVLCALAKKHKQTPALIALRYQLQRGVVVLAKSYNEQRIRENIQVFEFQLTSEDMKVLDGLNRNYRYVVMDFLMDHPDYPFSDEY

[4] = Elimination phase half life in Sprague-Dawley rat at 2 mg/kg, iv measured for 5760 mins by LC-MS/MS analysis; type: ADME, organism-based; details: in vivo, read-out: beta t1/2 (converted)
[5] = Clearance in Sprague-Dawley rat at 2 mg/kg, iv measured for 5760 mins by LC-MS/MS analysis; type: ADME, organism-based; details: in vivo
[6] = Tmax in Sprague-Dawley rat at 10 mg/kg, IG measured for 5760 mins by LC-MS/MS analysis; type: ADME, organism-based; details: in vivo, po
[7] = AUC (0 to infinity) in Sprague-Dawley rat at 10 mg/kg, IG measured for 5760 mins by LC-MS/MS analysis; type: ADME, organism-based; set-up: dose 10 mg/kg, time 5760 min, route ig; details: in vivo, po, 96 h
[8] = tested on: MCF7; assay: Synergistic antitumor activity against human MCF7 cells expressing AKR1C3 xenografted in BALB/c nude mouse assessed as tumor growth inhibition at 10 mg/kg, po administered every 2 days for 3 weeks in presence of doxorubicin and measured every 3 days by caliper analysis relative to control; type: functional
[9] = Toxicity in BALB/c nude mouse xenografted with human MCF7 cells expressing AKR1C3 assessed as reduction in body weight at 10 mg/kg, po administered every 2 days for 3 weeks in presence of doxorubicin and measured every 3 days; type: organism-based; details: in vivo, 504 h
[10] = Toxicity in BALB/c nude mouse xenografted with human MCF7 cells expressing AKR1C3 assessed as histopathological changes in lungs at 10 mg/kg, po administered every 2 days for 3 weeks in presence of doxorubicin by H and E staining based analysis; type: organism-based; details: in vivo, 504 h
[11] = tested on: MCF7; assay: Antiproliferative activity against human MCF7 cells overexpressing AKR1C3 assessed as cell survival rate at 50 uM incubated for 72 hrs by MTT assay relative to control; type: functional
[12] = tested on: MCF7; assay: Synergistic antiproliferative activity against human MCF7 cells overexpressing AKR1C3 assessed as combination index at 25 uM incubated for 72 hrs in presence of doxorubicin at 20 nM by Chou-Talalay method; type: functional
[13] = tested on: MCF7; assay: Synergistic antiproliferative activity against human MCF7 cells overexpressing AKR1C3 assessed as combination index at 25 uM incubated for 72 hrs in presence of doxorubicin at 200 nM by Chou-Talalay method; type: functional
[14] = tested on: MCF7; assay: Synergistic antiproliferative activity against human MCF7 cells overexpressing AKR1C3 assessed as combination index at 50 uM incubated for 72 hrs in presence of doxorubicin at 20 nM by Chou-Talalay method; type: functional
[15] = tested on: MCF7; assay: Synergistic antiproliferative activity against human MCF7 cells overexpressing AKR1C3 assessed as combination index at 50 uM incubated for 72 hrs in presence of doxorubicin at 100 nM by Chou-Talalay method; type: functional
[16] = tested on: MCF7; assay: Synergistic antiproliferative activity against human MCF7 cells overexpressing AKR1C3 assessed as combination index at 50 uM incubated for 72 hrs in presence of doxorubicin at 200 nM by Chou-Talalay method; type: functional
[17] = tested on: MCF7; assay: Synergistic antiproliferative activity against human MCF7 cells overexpressing AKR1C3 assessed as dose reduction index for doxorubicin at 10 uM incubated for 72 hrs in presence of doxorubicin at 200 nM by Chou-Talalay method; type: functional
[18] = tested on: MCF7; assay: Synergistic antiproliferative activity against human MCF7 cells overexpressing AKR1C3 assessed as dose reduction index for doxorubicin at 25 uM incubated for 72 hrs in presence of doxorubicin at 20 nM by Chou-Talalay method; type: functional
[19] = tested on: MCF7; assay: Synergistic antiproliferative activity against human MCF7 cells overexpressing AKR1C3 assessed as dose reduction index for doxorubicin at 25 uM incubated for 72 hrs in presence of doxorubicin at 200 nM by Chou-Talalay method; type: functional
[20] = tested on: MCF7; assay: Synergistic antiproliferative activity against human MCF7 cells overexpressing AKR1C3 assessed as dose reduction index for doxorubicin at 50 uM incubated for 72 hrs in presence of doxorubicin at 20 nM by Chou-Talalay method; type: functional
[21] = tested on: MCF7; assay: Synergistic antiproliferative activity against human MCF7 cells overexpressing AKR1C3 assessed as dose reduction index for doxorubicin at 50 uM incubated for 72 hrs in presence of doxorubicin at 100 nM by Chou-Talalay method; type: functional

`O=C(O)C1(c2ccc(-c3cc(Cl)cc(Cl)c3)c(F)c2)CC1` gave an IC50 [1] of 1530 nM, an IC50 [2] of 2930 nM and an IC50 [3] of over 10000 nM. The half-life [4] was 19.1 h, the clearance [5] was 52.3 mL/min/kg and the Tmax [6] was 10 h. For the same compound, the AUC [7] was 1592.21 ng·h/mL, the TGI [8] was 87.46% and the Activity [9] was “Non-Toxic”. The Activity [10] was “Non-Toxic”, the Survival [11] was over 80% and the CI [12] was 0.276. For the same compound, the CI [13] was 0.274, the CI [14] was 0.246 and the CI [15] was 0.214. The CI [16] was 0.154, the Activity_index [17] was 3.821 and the Activity_index [18] was 11.001. The Activity_index [19] was 5.636, the Activity_index [20] was 47.168 and the Activity_index [21] was 15.324.
